“Also recorded” adds a separate entry of the source.

Format in all cases: cell-based, Escherichia coli
One assay relates to various E. coli strains. Description: Antibacterial activity against a panel of E. coli strains. As to conditions: 6 strains of E. coli (K-12, B, H9049, 25922, UTI89, CFT073). The procedure: (§1) Overnight cultures of the bacterial strains were prepared by inoculating 5 mL of LB with the bacterial freezer stocks and the cultures were incubated at 37° C. in a tabletop incubator shaker set at 150 rpm. The overnight culture grew to saturation and was diluted 1:100 into 5 mL of fresh LB medium containing DP (200 μM) and incubated at 37° C. with shaking at 150 rpm until OD600 reached 0.6. The cultures were subsequently diluted to an OD600 value of 0.001 in 50% MHB medium (11.5 g/L) with or without DP (200 μM). No antibiotic marker was included in these cultures. A 90-μL aliquot of the diluted culture was combined with a 10-μL aliquot of a 10× solution of the tested compounds in a 96-well plate, which was wrapped in […] and incubated at 30° C. with shaking at 150 rpm for 19 h. Bacterial growth was determined by measuring OD600 using a BIOTEK SYNERGY HT plate reader. Each well condition was prepared in duplicate, and at least three independent replicates were conducted on different days. The resulting mean OD600 are reported and the error bars are the standard deviation.
Ampicillin and amoxicillin are β-lactam antibiotics that have periplasmic targets in Gram-negative bacteria and inhibit cell wall biosynthesis. The antibacterial activity of Ent-ampicillin and Ent-amoxicillin conjugates 44 and 45 was evaluated in vitro against a panel of Gram-negative and positive-bacteria.
Select Ent-β-lactam conjugates (Ent-Amp and Ent-Amx) and their glucosylated derivatives (MGE-Amp, MGE-Amx, DGE-Amp, and DGE-Amx) were tested against 6 strains of E. coli. Four of them are non-pathogenic strains, namely K-12, B, H9049, and 25922, and the other two are uropathogenic clinical isolates, namely UTI89 and CFT073.

For assay [1], the system named is uropathogenic E. coli and non-pathogenic E. coli. The experiment in a line: Mixed culture assays (summary), uropathogenic and non-pathogenic E. coli. As to conditions: uropathogenic with non-pathogenic E. coli. The source says:
No antibiotic marker was included in these cultures.

Assay [2] relates to E. coli CFT073. Description: Antimicrobial activity assay, E. coli CFT073. As to conditions: for concentration providing complete growth inhibition: 200 μM DP (iron-deficient); for effect of preloading Fe(III) on antibacterial activity: Fe(III)-loaded versus apo conjugates. As to the method: as §1
In another exemplary experiment, antibacterial activities of the conjugates were tested against E. coli CFT073 in 50% MHB at 30° C., t=19 h. DP (200 μM) was added to provide conditions of iron limitation.
In another exemplary experiment, antibacterial activities of Fe(III)-loaded or apo Ent-β-lactam conjugates (Ent-Amp and Ent-Amx) and their glucosylated derivatives (MGE-Amp, MGE-Amx, DGE-Amp, and DGE-Amx) against the uropathogenic strain E. coli CFT073 were tested in 50% MHB, 30° C., t=19 h. 2,2′-dipyridyl (DP, 200 μM) was added to provide conditions of iron limitation.

Assay [3] deals with E. coli CFT073. The experiment in a line: Competition assay with native siderophores, E. coli CFT073. The conditions noted are these: conjugate 100 nM, varied Ent, MGE or DGE, 50% MHB, 200 μM DP, 30° C., t=19 h. The procedure:
These assays were performed following the general procedure described herein except that varying concentrations of Ent, MGE, or DGE, each of which was unmodified, were mixed with Ent-Amp, Ent-Amx, MGE-Amp, MGE-Amx, DGE-Amp, or DGE-Amx. Ent was synthesized following a literature procedure^55 and stored as DMSO stock solution at −20° C. MGE and DGE were prepared from Ent using MceC and IroB as described for MGE-PEG3-N3 and DGE-PEG3-N3.
In another exemplary experiment, select conjugates (Ent-Amp, MGE-Amp, and DGE-Amp) with select native siderophores (Ent, MGE, and DGE) were tested against the uropathogenic strain E. coli CFT073 in 50% MHB, t=19 h, 30° C. 2,2′-dipyridyl (DP, 200 μM) was added to provide conditions of iron limitation. The concentration of the conjugates was fixed at 100 nM and the concentration of the native siderophores was varied.
In another exemplary experiment, select conjugates (Ent-Amx, MGE-Amx, and DGE-Amx) with select native siderophores (Ent, MGE, and DGE) were tested against the uropathogenic strain E. coli CFT073 in 50% MHB, t=19 h, 30° C. DP (200 μM) was added to provide conditions of iron limitation. The concentration of the conjugates was fixed at 100 nM and the concentration of the native siderophores was varied.

For assay [4], the system named is E. coli CFT073. Description: Antimicrobial activity assay in the presence of lipocalin 2. The conditions noted are these: conjugate 100 nM, lcn2 1 μM, M9 minimal media, 37° C., 24 h. The procedure: The bacterial cultures were grown in modified M9 minimal medium (Blango, M. G.; Ott, E. M.; Erman, A.; Veranic, P.; Mulvey, M. A. Forced Resurgence and Targeting of Intracellular Uropathogenic Escherichia coli Reservoirs. PLoS One 2014, 9, e93327-e93335) (Na2HPO4 6.8 g/L, KH2PO4 3 g/L, NaCl 0.5 g/L, NH4Cl 1 g/L, 0.4% glucose, 2 mM MgSO4, 0.1 mM CaCl2, 0.2% casein amino acids, and 16.5 μg/mL of thiamine) overnight. […] The cultures were serially diluted to an OD600 value of 0.00001 in fresh modified M9 minimal medium. Lipocalin 2 (Lcn2) was diluted into PBS buffer to a concentration of 20 μM upon arrival and frozen at −20° C. until use. Bovine serum albumin (BSA, Sigma-Aldrich) was prepared in PBS buffer to achieve a concentration of 20 μM. […] The bacterial growth was determined by measuring OD600 using the plate reader. […] The resulting mean OD600 was reported, and the error bars were the standard deviation. […] In contrast, Lcn2 had no effect of the antibacterial activity of MGE-Amp, MGE-Amx, DGE-Amp, or DGE-Amx.

The next assay concerns E. coli 25922. Description: Antimicrobial activity assay, E. coli 25922. As to conditions: 50% MHB, 200 μM DP (iron-deficient), 30° C., t=19 h. The procedure:
No antibiotic marker was included in these cultures. […] Bacterial growth was determined by measuring OD600 using a BIOTEK SYNERGY HT plate reader. Each well condition was prepared in duplicate, and at least three independent replicates were conducted on different days. The resulting mean OD600 are reported and the error bars are the standard deviation.
In another exemplary experiment, antibacterial activities of the conjugates were tested against E. coli 25922 in 50% MHB at 30° C., t=19 h. […] Under iron-deficient conditions, Ent-Amp and MGE-Amp provided a complete growth inhibition at 100 nM whereas 1 μM of DGE-Amp was required to provide a complete growth inhibition.

Where [5] appears, read: 50% MHB, 200 μM DP, 30° C., t=19 h.

In the case of `CC1(C)SC2C(NC(=O)C(NC(=O)CCCc3cn(CCOCCOCCOCCNC(=O)c4cc(O)c(O)c(C(=O)NC5COC(=O)C(NC(=O)c6cc(C7OC(CO)C(O)C(O)C7O)cc(O)c6O)COC(=O)C(NC(=O)c6cc(C7OC(CO)C(O)C(O)C7O)cc(O)c6O)COC5=O)c4)nn3)c3ccccc3)C(=O)N2C1C(=O)O` (centres unmarked) [DGE-Amp], the “antibacterial activity against uropathogenic compared to non-pathogenic E. coli” value in the assay with various E. coli strains is given as “greater antibacterial activity against the uropathogenic E. coli compared to non-pathogenic E. coli”. In addition, in assay [1], the “strain-specific growth inhibition in the mixed culture assays” value is reported as “specifically inhibited the growth of the uropathogenic E. coli”. Also, the “concentration providing complete growth inhibition” value in the assay with E. coli CFT073 [2] (50% MHB, 30° C., t=19 h) is 10 nM. The “improved antibacterial activity against E. coli CFT073 over E. coli K-12” value in the assay with E. coli CFT073 [2] (CFT073 (FepA and IroN) versus K-12 (FepA only)) amounted to 100 fold. For the same compound, the “effect of preloading Fe(III) on antibacterial activity” value (“effect of preloading Fe(III)” below) in the assay with E. coli CFT073 [2] (setting [5]) is given as “no effect”. Besides, the “attenuation of antibacterial activity by native siderophores” value (“attenuation of antibacterial activity” for short) in the assay on E. coli CFT073 [3] is “attenuated by Ent, MGE, and DGE”. Also, in the assay with E. coli CFT073 [4], the “effect of lipocalin-2 (lcn2) on antibacterial activity” value (“effect of lipocalin-2 (lcn2)” below) is recorded as “no effect; also recorded: unaffected; also recorded: not attenuated”. Also, in the assay with E. coli 25922, the “concentration required to provide complete growth inhibition” value is 1 µM.
`CC1(C)SC2C(NC(=O)C(NC(=O)CCCc3cn(CCOCCOCCOCCNC(=O)c4cc(O)c(O)c(C(=O)NC5COC(=O)C(NC(=O)c6cccc(O)c6O)COC(=O)C(NC(=O)c6cccc(O)c6O)COC5=O)c4)nn3)c3ccccc3)C(=O)N2C1C(=O)O` (stereo not drawn) [Ent-Amp]: the “antibacterial activity at 10 nM” value in the assay on E. coli CFT073 [2] (10 nM, 50% MHB, 200 μM DP, 30° C., t=19 h) is reported as “slightly less active”. In addition, the “effect of preloading Fe(III)” value with E. coli CFT073 [2] (setting [5]) was “no effect”. In addition, the “attenuation of antibacterial activity” value with E. coli CFT073 [3] was “only attenuated in the presence of Ent and MGE”. Further, in the assay on E. coli CFT073 [4], the “effect of lipocalin-2 (lcn2)” value is reported as “attenuated in the presence of Lcn2”. Also, in the assay on E. coli 25922, the “concentration providing complete growth inhibition” value is on record as 100 nM.
For the compound `CC1(C)SC2C(NC(=O)C(NC(=O)CCCc3cn(CCOCCOCCOCCNC(=O)c4cc(O)c(O)c(C(=O)NC5COC(=O)C(NC(=O)c6cccc(O)c6O)COC(=O)C(NC(=O)c6cccc(O)c6O)COC5=O)c4)nn3)c3ccc(O)cc3)C(=O)N2C1C(=O)O` (stereo not drawn) [Ent-Amx], in the assay on E. coli CFT073 [2] (setting [5]), the “effect of preloading Fe(III)” value is “no effect”. Also, in the assay with E. coli CFT073 [3], the “attenuation of antibacterial activity” value is reported as “only attenuated in the presence of Ent or MGE”. Besides, the “effect of lipocalin-2 (lcn2)” value with E. coli CFT073 [4] is listed as “attenuated in the presence of Lcn2”.
With `CC1(C)SC2C(NC(=O)C(NC(=O)CCCc3cn(CCOCCOCCOCCNC(=O)c4cc(O)c(O)c(C(=O)NC5COC(=O)C(NC(=O)c6cc(C7OC(CO)C(O)C(O)C7O)cc(O)c6O)COC(=O)C(NC(=O)c6cccc(O)c6O)COC5=O)c4)nn3)c3ccccc3)C(=O)N2C1C(=O)O` (centres unmarked) [MGE-Amp], the “antibacterial activity against uropathogenic compared to non-pathogenic E. coli” value in the assay on various E. coli strains is “greater antibacterial activity against the uropathogenic E. coli compared to non-pathogenic E. coli”. Further, the “strain-specific growth inhibition in the mixed culture assays” value in assay [1] is “specifically inhibited the growth of the uropathogenic E. coli”. The “concentration providing complete growth inhibition” value with E. coli CFT073 [2] (50% MHB, 30° C., t=19 h) is 10 nM; in the assay on E. coli 25922, 100 nM. For the same compound, in the assay with E. coli CFT073 [2] (setting [5]), the “effect of preloading Fe(III)” value was “no effect”. Besides, the “attenuation of antibacterial activity” value with E. coli CFT073 [3] was “attenuated by Ent, MGE, and DGE”. The “effect of lipocalin-2 (lcn2)” value with E. coli CFT073 [4] is recorded as “no effect; also recorded: unaffected; also recorded: not attenuated”.

The values above are taken from patent publication US9902986B2, “Enterobactin conjugates and uses thereof” (Massachusetts Institute of Technology, priority 2013, dated 2018).
